Source: patent US20250090562A1, “METHODS, COMPOSITIONS AND USES RELATED TO THE TREATMENT AND PREVENTION OF LEIGH’S SYNDROME” (Stealth BioTherapeutics Inc., priority 2023, published 2025)
“Also recorded” adds a separate entry of the source.

Experiments:
[1] = test system: ROS production generated by reverse electron transfer (RET) from Complex II to Complex I; test: Reverse electron transfer assay (RET assay) in isolated brain mitochondria; type: biochemical, mouse
Method: For mitochondria isolation, brains were dissected at a local vivarium (Explora, MA, USA) from C57BL/6 mice that were supplied by The Jackson Laboratory (Maine, USA). Brains were collected on ice in cold mitochondria isolation buffer (225 mM mannitol, 75 mM sucrose, 5 mM HEPES, 1 mM EGTA, pH 7.4). In a glass petri dish, brains were mixed with a few drops of buffer and cut into small pieces resembling a mash using scissors. Mitochondrial isolation buffer was added at 1:10-1:20 (w/v) and tissue mash was transferred to a glass Dounce tissue homogenizer and further homogenized with 10-15 strokes. Mash was centrifuged at 1,000×g for 10 min to pellet and remove cellular debris, etc. Supernatant was transferred into 2.0 mL tubes and centrifuged at 10,000×g. […]
All high-resolution respirometry experiments were conducted using the Oroboros O2k-Fluorespirometer (Oroboros, Innsbruck, Austria). […] Prior to each experiment requiring the fluorescence module, the AmpR calibration protocol from DatLab 7.4 was used to calibrate the fluorescence signal. […]
Reverse electron transfer (RET) was measured using HRR with the Oroboros O2k and DatLab 7.4. […]
Statistical analysis was performed using GraphPad Prism 9. […] RET Assay data were analyzed by 2-way ANOVA using a p-value of 0.05. […]

[2] = Pharmacokinetics of Compound 3 and Compound 4, five daily subcutaneous doses, mice (plasma, heart, brain); type: in vivo, C57Bl/6 mice; conditions: mouse; for tolerability: SC once per day for 5 days, up to 60 mg/kg
Method: (§1) • Animals: Male/C57Bl/6 mice/-18-25 grams were received from an approved vendor. • Fasting was not required for this study. • Body weights were recorded prior to dose administration. The volume of each dose delivered (mL/kg) was based on each individual animal's body weight. • This was a multiple dose terminal study dosed once per day over 5 days. Mice were taken down following their 5th and final dose. • Doses were administered in accordance with test facility standard operating procedures. […] Any abnormalities were recorded. • Pre-formulated Compound 3 and Compound 4 were provided by Study sponsor ready to be dosed for each day in accordance with the Study Design set forth in Table 1, below.
(§2) • Terminal blood samples were collected via cardiac puncture following inhalation of anesthesia in accordance with test facility standard operating procedures. • Blood samples were collected into tubes with appropriate anticoagulant. The tubes were stored on wet ice until processed to plasma by centrifugation (3500 rpm at 5° C. for 10 minutes) within 20 minutes of collection. Sample aliquots of 100 μL were transferred into individual uniquely labeled matrix tubes and stored at nominal −80° C. until transferred to analytical chemistry for analysis by LC/MS/MS. • Immediately following each terminal blood collection for all groups, animals were sacrificed and perfused with cold PBS. The following tissues were collected: heart and brain in accordance with Table 2. • Plasma and tissue samples were processed for analysis by LC/MS/MS to determine the amounts/concentrations reported in the FIGS. 18-21.

[3] = Pharmacokinetics of Compound 3, repeated (5 days) subcutaneous dose, rats; type: in vivo, Sprague Dawley rats
Method: as §1, with “Rat/Sprague Dawley/Male/Naive 225-250” for “Male/C57Bl/6 mice/-18-25”, “Rats” for “Mice”, “Compounds” for “Compound”, “was” for “and Compound 4 were”, “3,” for “1,”
as §2, with “inhalation” for “inhalation of”, “Tubes” for “The tubes”, “analysis.” for “analysis by LC/MS/MS.”, “The following tissues were collected: heart and brain in accordance with Table 2. • Plasma and tissue samples were processed for analysis by LC/MS/MS to determine the amounts/concentrations reported in the FIGS. 18-21.” left out

[4] = SC, up to 2 hours post dose after 5 days

| Structure (SMILES) | H2O2 production ([1]; 2 μM compound prior to succinate (10 mM)) | exposure (Cmax and AUC) heart compared with brain ([2]; SC) | heart exposure based on AUC, comparison between compounds ([2]; SC) | uptake into plasma after subcutaneous injection ([2]; SC) | tolerability [2] | concentration in brain tissue [2, 4] | concentration in heart tissue [2, 4] | plasma uptake and clearance across species (mouse versus rat) ([3]; 20 mg/kg SC in mouse versus 10 mg/kg SC in rat (60 mg/m^2)) | tolerability ([3]; rat, 10 mg/kg SC once per day for 5 days) | H2O2 production ([1]; either 1 or 2 μM compound prior to succinate (10 mM)) | Tmax, Compound 4 compared with Compound 3 ([2]; in vivo, sc) | brain exposure based on AUC, comparison between compounds ([2]; in vivo, sc) | exposure (Cmax and AUC) heart compared with brain ([2]; in vivo, sc) | half-life, Compound 4 compared with Compound 3 ([2]; in vivo, sc) | uptake into plasma after subcutaneous injection ([2]; in vivo, sc) |
| --- | --- | --- | --- | --- | --- | --- | --- | --- | --- | --- | --- | --- | --- | --- | --- |
| CC1=C(C)C(=O)C(CC[C@@](C)(O)COCCC[Si](C)(C)C)=C(C)C1=O [Compound 3] | statistically significant reduction | higher in heart than in brain | slightly higher that Compound 4 | migrate into the blood stream | well tolerated | up to microgram quantities of drug per gram of brain tissue | up to microgram quantities of drug per gram of heart tissue | roughly equivalent; also recorded: scales well by allometry | well tolerated | – | – | – | – | – | – |
| CC1=C(C)C(=O)C(CC[C@](C)(O)CCCCCCCCC(F)(F)F)=C(C)C1=O [Compound 4] | – | – | – | – | well tolerated | – | – | – | – | statistically significant reduction | typically later | somewhat higher than Compound 3 | no difference in the two tissue exposures | tended to be longer | migrate into the blood stream |
